Assay results: PubChem BioAssay (NCI)
Where “and” joins values, the source holds several entries; their conditions need not be identical. Equal values may be shown once.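 Exposure lasted 48 hours, with cells grown in 96-well plates and compounds tested at five concentrations. The concentration for 50% growth inhibition is given as GI50. TGI denotes the concentration required for complete inhibition of growth.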

What was measured:
Test in all cases: inhibition of tumour cell growth, NCI panel, 48 h
M14 melanoma = tested on: M14 melanoma
OVCAR-8 ovarian = tested on: OVCAR-8 ovarian
PC-3 prostate = tested on: PC-3 prostate
T-47D breast = tested on: T-47D breast
SR leukemia = tested on: SR leukemia
HCT-15 colon = tested on: HCT-15 colon
CCRF-CEM leukemia = tested on: CCRF-CEM leukemia
OVCAR-4 ovarian = tested on: OVCAR-4 ovarian
U251 CNS = tested on: U251 CNS
UACC-257 melanoma = tested on: UACC-257 melanoma
A498 renal = tested on: A498 renal
786-0 renal = tested on: 786-0 renal
HOP-62 NSCLC = tested on: HOP-62 NSCLC
HCC-2998 colon = tested on: HCC-2998 colon
NCI/ADR-RES ovarian = tested on: NCI/ADR-RES ovarian

SMILES | TGI (M14 melanoma) | TGI (OVCAR-8 ovarian) | TGI (PC-3 prostate) | TGI (T-47D breast) | TGI (SR leukemia) | TGI (HCT-15 colon) | TGI (CCRF-CEM leukemia) | TGI (OVCAR-4 ovarian) | TGI (U251 CNS) | TGI (UACC-257 melanoma) | TGI (A498 renal) | TGI (786-0 renal) | TGI (HOP-62 NSCLC) | TGI (HCC-2998 colon) [µM] | TGI (NCI/ADR-RES ovarian) [µM] | GI50 (OVCAR-8 ovarian) | GI50 (A498 renal) | GI50 (HOP-62 NSCLC) | GI50 (NCI/ADR-RES ovarian) [µM]
N#CC12CC=C(c3ccccc3)N=C1NC(c1ccccc1)=CC2 (stereo not drawn) | > 100 µM | > 100 µM | > 100 µM | > 100 µM | 82.2 µM | > 100 µM | 77.7 µM | > 100 µM | > 100 µM | > 100 µM | 97 µM | > 100 µM | > 100 µM | > 100 | > 100 |  |  |  | 
COc1ccc2[nH]c3c(C)c4ccnc(NCCCN(C)CCCN)c4c(C)c3c2c1 | 0.335 µM | 0.376 µM | 0.712 µM | 0.814 µM | > 100 µM | 1.47 µM | > 32.1 µM | 0.442 µM |  | 2.95 µM |  | 0.39 µM | 0.385 µM | 0.376 | 2.09 |  |  |  | 
CC(=O)C1=C(C)N(c2ccc(C)cc2)C2(O)C=CC(=O)C3=C(O)c4ccccc4C(=O)C312 (stereo not drawn) | > 100 µM | 64.6 µM | 41.5 µM | > 100 µM | > 100 µM | > 100 µM |  | 36 µM | 69.6 µM | 27.1 µM | 30.8 µM | > 100 µM | > 100 µM | 42.2 | > 100 |  |  |  | 
CSc1ncc2c(C#N)c3ccccn3c(=O)c2n1 | > 100 µM | > 100 µM | > 100 µM | > 100 µM | > 100 µM | > 100 µM | > 100 µM | > 100 µM | > 100 µM | > 100 µM | > 100 µM | > 100 µM | > 100 µM | > 100 | > 100 |  |  |  | 
O=[N+]([O-])c1ccc(OP(=O)(O)OCC2OC(CP(=O)(O)O)C(O)C2O)cc1 (stereo not drawn) | > 100 µM | > 100 µM | > 100 µM | > 100 µM | > 100 µM | > 100 µM | > 100 µM | > 100 µM | > 100 µM | > 100 µM | > 100 µM | > 100 µM | > 100 µM | > 100 | > 100 |  |  |  | 
COc1cc(CC(C)N[C@@H](C)c2ccccc2)cc(OC)c1 (stereo partly drawn) | 21.9 µM and > 100 µM | 25.7 µM and > 100 µM | 14.2 µM and > 100 µM | 18.3 µM and > 100 µM | 15.2 µM and > 100 µM | 16.1 µM and > 100 µM | 24 µM and > 100 µM | 22.4 µM and > 100 µM | 19.8 µM and > 100 µM | 19.5 µM and > 100 µM | 21 µM and > 100 µM | 17.3 µM and > 100 µM | 24.2 µM and > 100 µM |  | > 100 | 11.8 µM and > 100 µM | 7.9 µM and 41.8 µM | 11.2 µM and > 100 µM | > 100
CC(=O)N1N=C(c2ccccc2Nc2ccccc2C2=NN(C(C)=O)C(c3ccccc3)O2)OC1c1ccccc1 (stereo not drawn) | > 100 µM | > 100 µM | > 100 µM | > 100 µM | > 100 µM | > 100 µM |  | > 100 µM | > 100 µM |  |  | > 100 µM | > 100 µM | > 100 | > 100 |  |  |  | 
O=CN(O)CC(=O)O.[Ni] | > 100 µM | > 100 µM | > 100 µM | > 100 µM | > 100 µM | > 100 µM | > 100 µM | > 100 µM | > 100 µM | > 100 µM | > 100 µM | > 100 µM | > 100 µM | > 100 | > 100 |  |  |  | 
CCCC(=O)n1[nH]c(=O)n(C(C)(C)C)c1=O | > 100 µM | > 100 µM | > 100 µM | > 100 µM | > 100 µM | > 100 µM | > 100 µM | > 100 µM | > 100 µM | > 100 µM |  | > 100 µM | > 100 µM | > 100 | > 100 |  |  |  | 
NS(=O)(=O)c1ccc(N=Nc2ccc(O)c(O)c2)cc1 | 65.2 µM | 21.5 µM | > 100 µM | > 100 µM | 48 µM | 12.6 µM | 60 µM | 29.1 µM | 72.9 µM | 66.6 µM | > 100 µM | > 100 µM | 56.3 µM | 41.3 | 73.2 |  |  |  | 
Nc1nc(Cl)cc(NCC2(CO)CC(c3ccccc3)C2)n1 (stereo not drawn) | > 100 µM | > 100 µM | > 100 µM | > 100 µM | > 100 µM | > 100 µM | > 100 µM | > 100 µM | > 100 µM | > 100 µM | > 100 µM | > 100 µM | > 100 µM |  | 92.2 |  |  |  | 
CNC(=O)C1CCC(=O)N1CN(C(C)=O)c1ccccc1 (stereo not drawn) | > 100 µM | > 100 µM | > 100 µM | > 100 µM | 84 µM | > 100 µM | 0.426 µM | > 100 µM | > 100 µM | > 100 µM | > 100 µM | > 100 µM | > 100 µM |  | > 100 |  |  |  | 
Nc1cccc(/C=C/CN2CCN(CCOC(c3ccccc3)c3ccccc3)CC2)c1 | 25.9 µM | 30.1 µM | 30 µM | 26 µM | 17.4 µM | 26.1 µM | 25.7 µM | 27.7 µM | 30.5 µM | 31.1 µM | 32.5 µM | 30.5 µM | 26.9 µM | 11.9 | 29.5 |  |  |  | 
Cc1cc(CN(Cc2ccccc2)Cc2nc3ccccc3[nH]2)c(O)c(CN(Cc2nc3ccccc3[nH]2)Cc2nc3ccccc3[nH]2)c1 | 26.6 µM | > 100 µM | 60.6 µM | > 69.5 µM | > 25.3 µM | > 23.1 µM | > 21.8 µM | 98.7 µM | > 100 µM | 23.1 µM | > 48.6 µM | 73.4 µM | 35.3 µM | 38 | 35.9 |  |  |  | 
COC(=O)c1ccc(-n2c(C)nc(=O)c(-c3ccccc3)c2C)cc1 | > 100 µM | > 100 µM | > 100 µM | > 100 µM | > 100 µM | > 100 µM | > 100 µM | > 100 µM | > 100 µM | > 100 µM | > 100 µM | > 100 µM | > 100 µM | > 100 | > 100 |  |  |  | 
c1ccc(CNCCCNCCCCNCCCNCc2ccccc2)cc1 | 16.1 µM | 27 µM | 11.2 µM | 39.8 µM | 25.6 µM | 33.8 µM | > 21.5 µM | 33.1 µM | 22.5 µM | 31.1 µM |  | 2.97 µM | 17.1 µM | 15.2 | > 100 |  |  |  | 
